The source of these data is PMC8760490, “Discovery of novel furanylbenzamide inhibitors that target oncogenic tyrosine phosphatase SHP2 in leukemia cells” (The Journal of Biological Chemistry, 2021).

Experiment [1] relates to mutant SHP2 (E76K) in live cells. Set-up: method as in PMID 31953320, PMID 32744526. To be noted: cellular thermal shift assay; cited from earlier work.
Experiment [2] relates to phospho-ERK1/2 (p-ERK1/2) in U-937 AML cells. The experiment in a line: p-ERK1/2 immunoblot, U-937. The experiment is classed as cell-based. The settings on record: SBI-4668 1, 3, 10, 30 μM, RMC-4550 1 μM. The source says: (§1) Oncogenic gain-of-function mutations in SHP2 drive leukemogenesis in a significant number of leukemia patients. However, because of their unique mechanism of action, the existing SHP2 allosteric inhibitors lack activity against the most common SHP2 oncogenic variants. Thus, we tested whether our inhibitors could inhibit the growth of leukemia cells expressing oncogenic SHP2 variants. […] Thus, we tested both SBI-4668 and RMC-4550 on U-937 AML cells, which harbor a G60R oncogenic mutation in SHP2. We treated cells with either SBI-4668 or RMC-4550 at various concentrations, ranging from 0.123 to 30 μM (Fig. 5A). […] We also assessed the effects of SBI-4668 and RMC-4550 on ERK1/2 activation in the SHP2 mutant U-937 cell line. Similar to the immunoblot experiments described for MOLM-13 cells above, U-937 AML cells were treated with either vehicle control (DMSO), SBI-4668 (1, 3, 10, or 30 μM), or with RMC-4550 (1 μM) for 24 h and processed for p-ERK1/2 immunoblot analysis (Fig. 5B).
Cells cultured in RPMI medium were treated as indicated in the legends to the figures. […] Densitometric quantitation of immunoblots was performed using Image Studio Lite Software (LI-COR). Changes of phosphorylated ERK1/2 to total ERK1/2 ratios are expressed as percentage of the vehicle-treated controls. […]

The test system of experiment [3] is U-937 AML cells (G60R oncogenic mutation in SHP2). The experiment in a line: Cell viability (CellTiter-Glo), U-937. The experiment is classed as cell-based. To be noted: 3 days, 0.123 to 30 μM.
Text: as §1, with “Similar to the immunoblot experiments described for MOLM-13 cells above, U-937 AML cells were treated with either vehicle control (DMSO), SBI-4668 (1, 3, 10, or 30 μM), or with RMC-4550 (1 μM) for 24 h and processed for p-ERK1/2 immunoblot analysis (Fig. 5B).” left out
(§2) Viability of AML and esophageal carcinoma cells was assessed using the ATP-depletion assay CellTiter-Glo (Promega). Cells were harvested at 1 × 10^6/ml to 2 × 10^6 cells/ml with cell numbers determined by trypan blue using the Countess Cell counter (Thermo Scientific) and resuspended in culture media. […] Luminescence was read on a Tecan Spark Multimode Microplate Reader, and data were analyzed using GraphPad Prism software.
For orientation: In ATP-based viability assays light output follows the ATP content of the culture.

Experiment [4] relates to patient-derived AML cells. The experiment in a line: Viability of patient-derived AML cells. To be noted: 10 μM; 2, 4 or 6 days in culture. It counts as cell-based, human.
Text: (§3) Because SHP2 activity is critical for ERK activation, we used phospho-ERK1/2 (p-ERK1/2) as a more direct readout of SHP2 inhibitor efficacy. […] This p-ERK rebound in MOLM-13 cells treated with RMC-4550 is reminiscent of previously reported data from human hepatoma Hep3B cells treated with SHP099 ([34]). We also tested the effects of SBI-4668 or RMC-4550 on two patient-derived AML samples (Fig. 4F).
Patient-derived AML cells were obtained from Carol Burian and Dr James Mason (Scripps MD Anderson Center) under approved Institutional Review Board protocol 13-6180. […] Final peripheral blood mononuclear cells were resuspended in Bambanker serum-free freezing medium (Wako Pure Chemical Industries, Ltd) and stored frozen before cell viability was assessed as described later.
as §2

Experiment [5] relates to phospho-ERK1/2 (p-ERK1/2) in MOLM-13 AML cells. The experiment in a line: p-ERK1/2 immunoblot, MOLM-13. The experiment is classed as cell-based. The settings on record: 3 h; SBI-4668 3, 10, 30 μM; RMC-4550 1 μM. The method, then: as §3
Cells cultured in RPMI medium were treated as indicated in the legends to the figures. Total protein extracts were prepared in modified radioimmunoprecipitation assay lysis buffer (25 mM Tris–HCl, pH 7.4, 10% glycerol, 0.2% Triton X-100, 150 mM NaCl, 2 mM Na3VO4, and 1 mM EDTA) containing a protease inhibitor cocktail (Roche Applied Science). Equal amounts of protein were separated on 4 to 12% (p-ERK1/2 blots) or 4 to 20% (SHP2 blots) Bis–Tris gels by SDS-PAGE and transferred to nitrocellulose (p-ERK1/2 blots) or 0.2 μm polyvinylidene fluoride (SHP2 blots) membranes. Membranes were blocked in 5% dry milk (Bio-Rad) in Tris-buffered saline–Tween-20 (TBS–T) (0.1% v/v) for 1 h at RT. Protein-bound membranes were incubated with indicated primary antibody overnight at 4 °C. After washing three times with TBS-T, membranes were incubated for 1 h with horseradish peroxidase–conjugated secondary antibody and then visualized by an ECL Prime detection system (GE Healthcare). Immunoblotting experiments were carried out at least three times, and representative images are shown. Densitometric quantitation of immunoblots was performed using Image Studio Lite Software (LI-COR). Changes of phosphorylated ERK1/2 to total ERK1/2 ratios are expressed as percentage of the vehicle-treated controls. The following antibodies were used: Phospho-Erk1/2 Ab (catalog no.: 9101S; Cell Signaling); total Erk1/2 Ab (catalog no.: 9102S; Cell Signaling); SHP2 Ab (catalog no.: A301-544A; lot no.: 1; Bethyl); and GAPDH (14C10) mAb (catalog no.: 2118S; lot no.: 14; Cell Signaling).
Background: Immunoblotting shows a protein as a band on a membrane.

One may read the IC50 as the point on the concentration scale where inhibition reaches its midpoint. As to `Cc1nc(N2CCC3(CC2)CO[C@@H](C)[C@H]3N)c(CO)nc1-c1cccc(Cl)c1Cl` [RMC-4550, reference compound], in experiment [1], the “cellular target engagement with mutant SHP2” value is “greatly decreased cellular target engagement”. Also, the “p-ERK1/2 levels, U-937, 24 h” value in experiment [2] was “not detectable”. In experiment [3], this molecule yielded an IC50 of 33 µM. Besides, the “growth of two patient-derived AML samples” value in experiment [4] is reported as “only affected the growth of sample 2”. Besides, in experiment [5], the “p-ERK1/2 levels, MOLM-13, 3 h” value was “highly effective in impeding ERK1/2 activation”.
